# Literature values in patent publication US20110091459A1, “IMIDAZOLE MODULATORS OF MUSCARINIC ACETYLCHOLINE RECEPTOR M3” (AUSPEX PHARMACEUTICALS, INC., priority 2008, published 2011).
# Key:
# [1] = metabolite formed by CYP2A6 mediated hydroxylation of the lactone ring
# [2] = in vivo
# [3] = in vivo; remark: listed apart in the source
half-life [2] [min],Structure (SMILES),pharmacological activity [1],adverse effects [3]
–,CC[C@@]1(O)C(=O)OC[C@H]1Cc1cncn1C [3-hydroxypilocarpine],pharmacologically inactive,–
45.6 to 81,"CC[C@@H]1C(=O)OC[C@@H]1Cc1cncn1C [Pilocarpine, (3S,4R)-3-ethyl-4-((1-methyl-1H-imidazol-5-yl)methyl)dihydrofuran-2(3H)-one]",–,"blurred vision, nightblindness, and pulmonary edema"
